Experimental data published in PubChem BioAssay (NCI).
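Assay format: 96-well plates, 48-hour exposure. At the TGI there is no net growth.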

Assays:
Test in all cases: DTP human tumour cell line panel, 48 h
OVCAR-8 ovarian = system: OVCAR-8 ovarian
UACC-62 melanoma = system: UACC-62 melanoma
786-0 renal = system: 786-0 renal
TK-10 renal = system: TK-10 renal
A498 renal = system: A498 renal
HOP-62 NSCLC = system: HOP-62 NSCLC
RXF 393 renal = system: RXF 393 renal
LOX IMVI melanoma = system: LOX IMVI melanoma
SK-MEL-28 melanoma = system: SK-MEL-28 melanoma
M14 melanoma = system: M14 melanoma
IGROV1 ovarian = system: IGROV1 ovarian
CCRF-CEM leukemia = system: CCRF-CEM leukemia
HL-60(TB) leukemia = system: HL-60(TB) leukemia
HCC-2998 colon = system: HCC-2998 colon
SNB-19 CNS = system: SNB-19 CNS
SK-MEL-5 melanoma = system: SK-MEL-5 melanoma
HOP-92 NSCLC = system: HOP-92 NSCLC
RXF-631 renal = system: RXF-631 renal
XF 498 CNS = system: XF 498 CNS
EKVX NSCLC = system: EKVX NSCLC
SF-268 CNS = system: SF-268 CNS
DMS 114 small cell lung = system: DMS 114 small cell lung
HCT-116 colon = system: HCT-116 colon
NCI-H226 lung = system: NCI-H226 lung
K-562 leukemia = system: K-562 leukemia
NCI-H23 lung = system: NCI-H23 lung
SN12C renal = system: SN12C renal
SF-539 CNS = system: SF-539 CNS
KM20L2 colon = system: KM20L2 colon
DLD-1 colon = system: DLD-1 colon
U251 CNS = system: U251 CNS
M19-MEL melanoma = system: M19-MEL melanoma
SW-620 colon = system: SW-620 colon
COLO 205 colon = system: COLO 205 colon
KM12 colon = system: KM12 colon
SK-OV-3 ovarian = system: SK-OV-3 ovarian
OVCAR-5 ovarian = system: OVCAR-5 ovarian
OVCAR-3 ovarian = system: OVCAR-3 ovarian
UACC-257 melanoma = system: UACC-257 melanoma
MALME-3M melanoma = system: MALME-3M melanoma
LXFL 529 NSCLC = system: LXFL 529 NSCLC
HCT-15 colon = system: HCT-15 colon
SK-MEL-2 melanoma = system: SK-MEL-2 melanoma
HT29 colon = system: HT29 colon
SF-295 CNS = system: SF-295 CNS
SNB-78 CNS = system: SNB-78 CNS
NCI-H460 lung = system: NCI-H460 lung
NCI-H522 lung = system: NCI-H522 lung
UO-31 renal = system: UO-31 renal
DMS 273 small cell lung = system: DMS 273 small cell lung
ACHN renal = system: ACHN renal
OVCAR-4 ovarian = system: OVCAR-4 ovarian
SNB-75 CNS = system: SNB-75 CNS
A549 NSCLC = system: A549 NSCLC
HOP-18 NSCLC = system: HOP-18 NSCLC
RPMI-8226 leukemia = system: RPMI-8226 leukemia
CAKI-1 renal = system: CAKI-1 renal
MOLT-4 leukemia = system: MOLT-4 leukemia
SR leukemia = system: SR leukemia

## COc1c(O)ccc(/C=N/NC(=S)NCOCCOC(C)=O)c1OC
OVCAR-8 ovarian
  TGI: > 100 µM
UACC-62 melanoma
  TGI: > 100 µM
786-0 renal
  TGI: > 100 µM
TK-10 renal
  TGI: > 100 µM
A498 renal
  TGI: > 100 µM
HOP-62 NSCLC
  TGI: > 100 µM
RXF 393 renal
  TGI: > 100 µM
LOX IMVI melanoma
  TGI: > 100 µM
SK-MEL-28 melanoma
  TGI: > 100 µM
M14 melanoma
  TGI: > 100 µM
IGROV1 ovarian
  TGI: > 100 µM
CCRF-CEM leukemia
  TGI: > 100 µM
HL-60(TB) leukemia
  TGI: > 100 µM
HCC-2998 colon
  TGI: > 100 µM
SNB-19 CNS
  TGI: > 100 µM
SK-MEL-5 melanoma
  TGI: > 100 µM
HOP-92 NSCLC
  TGI: > 100 µM
RXF-631 renal
  TGI: > 100 µM
XF 498 CNS
  TGI: > 100 µM
EKVX NSCLC
  TGI: > 100 µM
SF-268 CNS
  TGI: > 100 µM
DMS 114 small cell lung
  TGI: > 100 µM
HCT-116 colon
  TGI: > 100 µM
NCI-H226 lung
  TGI: > 100 µM
K-562 leukemia
  TGI: > 100 µM
NCI-H23 lung
  TGI: > 100 µM
SN12C renal
  TGI: > 100 µM
SF-539 CNS
  TGI: > 100 µM
KM20L2 colon
  TGI: > 100 µM
DLD-1 colon
  TGI: > 100 µM
U251 CNS
  TGI: > 100 µM
M19-MEL melanoma
  TGI: > 100 µM
SW-620 colon
  TGI: > 100 µM
COLO 205 colon
  TGI: > 100 µM
KM12 colon
  TGI: > 100 µM
SK-OV-3 ovarian
  TGI: > 100 µM
OVCAR-5 ovarian
  TGI: > 100 µM
OVCAR-3 ovarian
  TGI: > 100 µM
UACC-257 melanoma
  TGI: > 100 µM
MALME-3M melanoma
  TGI: > 100 µM
LXFL 529 NSCLC
  TGI: > 100 µM
HCT-15 colon
  TGI: > 100 µM
SK-MEL-2 melanoma
  TGI: > 100 µM
HT29 colon
  TGI: > 100 µM
SF-295 CNS
  TGI: > 100 µM
SNB-78 CNS
  TGI: > 100 µM
NCI-H460 lung
  TGI: > 100 µM
NCI-H522 lung
  TGI: > 100 µM
UO-31 renal
  TGI: > 100 µM
DMS 273 small cell lung
  TGI: > 100 µM
ACHN renal
  TGI: > 100 µM
OVCAR-4 ovarian
  TGI: > 100 µM
SNB-75 CNS
  TGI: > 100 µM
A549 NSCLC
  TGI: > 100 µM
HOP-18 NSCLC
  TGI: > 100 µM

## CC(=O)CC(=O)Nc1ccc(OS(N)(=O)=O)cc1
OVCAR-8 ovarian
  TGI: > 100 µM
UACC-62 melanoma
  TGI: > 100 µM
RPMI-8226 leukemia
  TGI: > 100 µM
786-0 renal
  TGI: > 100 µM
CAKI-1 renal
  TGI: > 100 µM
TK-10 renal
  TGI: > 100 µM
A498 renal
  TGI: > 100 µM
HOP-62 NSCLC
  TGI: > 100 µM
RXF 393 renal
  TGI: > 100 µM
SK-MEL-28 melanoma
  TGI: > 100 µM
M14 melanoma
  TGI: > 100 µM
IGROV1 ovarian
  TGI: > 100 µM
CCRF-CEM leukemia
  TGI: > 100 µM
HL-60(TB) leukemia
  TGI: > 100 µM
HCC-2998 colon
  TGI: > 100 µM
SNB-19 CNS
  TGI: > 100 µM
SK-MEL-5 melanoma
  TGI: > 100 µM
HOP-92 NSCLC
  TGI: > 100 µM
RXF-631 renal
  TGI: > 100 µM
XF 498 CNS
  TGI: > 100 µM
EKVX NSCLC
  TGI: > 100 µM
SF-268 CNS
  TGI: > 100 µM
DMS 114 small cell lung
  TGI: > 100 µM
HCT-116 colon
  TGI: > 100 µM
NCI-H226 lung
  TGI: > 100 µM
K-562 leukemia
  TGI: > 100 µM
NCI-H23 lung
  TGI: > 100 µM
SN12C renal
  TGI: > 100 µM
SF-539 CNS
  TGI: > 100 µM
KM20L2 colon
  TGI: > 100 µM
DLD-1 colon
  TGI: > 100 µM
U251 CNS
  TGI: > 100 µM
M19-MEL melanoma
  TGI: > 100 µM
SW-620 colon
  TGI: > 100 µM
COLO 205 colon
  TGI: > 100 µM
KM12 colon
  TGI: > 100 µM
SK-OV-3 ovarian
  TGI: > 100 µM
OVCAR-5 ovarian
  TGI: > 100 µM
OVCAR-3 ovarian
  TGI: > 100 µM
UACC-257 melanoma
  TGI: > 100 µM
MALME-3M melanoma
  TGI: > 100 µM
LXFL 529 NSCLC
  TGI: > 100 µM
HCT-15 colon
  TGI: > 100 µM
MOLT-4 leukemia
  TGI: > 100 µM
SK-MEL-2 melanoma
  TGI: > 100 µM
HT29 colon
  TGI: > 100 µM
SF-295 CNS
  TGI: > 100 µM
SNB-78 CNS
  TGI: > 100 µM
SR leukemia
  TGI: > 100 µM
NCI-H460 lung
  TGI: > 100 µM
NCI-H522 lung
  TGI: > 100 µM
UO-31 renal
  TGI: > 100 µM
DMS 273 small cell lung
  TGI: > 100 µM
ACHN renal
  TGI: > 100 µM
OVCAR-4 ovarian
  TGI: > 100 µM
SNB-75 CNS
  TGI: > 100 µM
A549 NSCLC
  TGI: > 100 µM
HOP-18 NSCLC
  TGI: > 100 µM

## COc1cc(Br)c(/C=N/N=C(\N)NO)cc1OC
OVCAR-8 ovarian
  TGI: 76 µM
UACC-62 melanoma
  TGI: 32.3 µM
RPMI-8226 leukemia
  TGI: > 100 µM
786-0 renal
  TGI: 92.8 µM
CAKI-1 renal
  TGI: 79 µM
TK-10 renal
  TGI: > 100 µM
A498 renal
  TGI: 78.9 µM
HOP-62 NSCLC
  TGI: 70.3 µM
RXF 393 renal
  TGI: 54.4 µM
LOX IMVI melanoma
  TGI: 61.2 µM
SK-MEL-28 melanoma
  TGI: > 100 µM
M14 melanoma
  TGI: 34.7 µM
IGROV1 ovarian
  TGI: > 100 µM
CCRF-CEM leukemia
  TGI: > 100 µM
HL-60(TB) leukemia
  TGI: 52.6 µM
HCC-2998 colon
  TGI: 26.3 µM
SNB-19 CNS
  TGI: > 100 µM
SK-MEL-5 melanoma
  TGI: 21.2 µM
HOP-92 NSCLC
  TGI: 90.5 µM
RXF-631 renal
  TGI: > 100 µM
XF 498 CNS
  TGI: 69.6 µM
EKVX NSCLC
  TGI: > 100 µM
SF-268 CNS
  TGI: 30.6 µM
DMS 114 small cell lung
  TGI: 33.6 µM
HCT-116 colon
  TGI: 43.8 µM
NCI-H226 lung
  TGI: 31.5 µM
K-562 leukemia
  TGI: 47.3 µM
NCI-H23 lung
  TGI: 69 µM
SN12C renal
  TGI: 83.2 µM
SF-539 CNS
  TGI: 58.7 µM
KM20L2 colon
  TGI: 47.2 µM
DLD-1 colon
  TGI: > 100 µM
U251 CNS
  TGI: > 100 µM
M19-MEL melanoma
  TGI: 76.2 µM
SW-620 colon
  TGI: > 100 µM
COLO 205 colon
  TGI: 25.6 µM
KM12 colon
  TGI: > 100 µM
SK-OV-3 ovarian
  TGI: 68.8 µM
OVCAR-5 ovarian
  TGI: > 100 µM
OVCAR-3 ovarian
  TGI: > 100 µM
UACC-257 melanoma
  TGI: 51 µM
MALME-3M melanoma
  TGI: 60.2 µM
LXFL 529 NSCLC
  TGI: > 100 µM
HCT-15 colon
  TGI: > 100 µM
MOLT-4 leukemia
  TGI: > 100 µM
SK-MEL-2 melanoma
  TGI: > 100 µM
HT29 colon
  TGI: 86.3 µM
SF-295 CNS
  TGI: > 100 µM
SNB-78 CNS
  TGI: > 100 µM
SR leukemia
  TGI: > 100 µM
NCI-H460 lung
  TGI: 27.2 µM
NCI-H522 lung
  TGI: 37.5 µM
UO-31 renal
  TGI: > 100 µM
DMS 273 small cell lung
  TGI: > 100 µM
ACHN renal
  TGI: 50.6 µM
OVCAR-4 ovarian
  TGI: > 100 µM
SNB-75 CNS
  TGI: 65.9 µM
A549 NSCLC
  TGI: 50.2 µM
HOP-18 NSCLC
  TGI: > 100 µM
